Test results: patent US5426103A, “Certain macrocyclic lactam derivatives” (Ciba-Geigy Corporation, priority 1993, dated 1995)

How the values were obtained:
[1] = molecular target: T1, neutral endopeptidase (NEP) (Rattus norvegicus, UniProt P07861); assay: inhibition of neutral endopeptidase (NEP), substrate not stated with the result; assay type: biochemical; details: for relative NEP inhibiting activity of isomers: compared with the other isomer; for IC50: substrate (GAAP or ANF) not stated
T1 sequence (P07861 1-750): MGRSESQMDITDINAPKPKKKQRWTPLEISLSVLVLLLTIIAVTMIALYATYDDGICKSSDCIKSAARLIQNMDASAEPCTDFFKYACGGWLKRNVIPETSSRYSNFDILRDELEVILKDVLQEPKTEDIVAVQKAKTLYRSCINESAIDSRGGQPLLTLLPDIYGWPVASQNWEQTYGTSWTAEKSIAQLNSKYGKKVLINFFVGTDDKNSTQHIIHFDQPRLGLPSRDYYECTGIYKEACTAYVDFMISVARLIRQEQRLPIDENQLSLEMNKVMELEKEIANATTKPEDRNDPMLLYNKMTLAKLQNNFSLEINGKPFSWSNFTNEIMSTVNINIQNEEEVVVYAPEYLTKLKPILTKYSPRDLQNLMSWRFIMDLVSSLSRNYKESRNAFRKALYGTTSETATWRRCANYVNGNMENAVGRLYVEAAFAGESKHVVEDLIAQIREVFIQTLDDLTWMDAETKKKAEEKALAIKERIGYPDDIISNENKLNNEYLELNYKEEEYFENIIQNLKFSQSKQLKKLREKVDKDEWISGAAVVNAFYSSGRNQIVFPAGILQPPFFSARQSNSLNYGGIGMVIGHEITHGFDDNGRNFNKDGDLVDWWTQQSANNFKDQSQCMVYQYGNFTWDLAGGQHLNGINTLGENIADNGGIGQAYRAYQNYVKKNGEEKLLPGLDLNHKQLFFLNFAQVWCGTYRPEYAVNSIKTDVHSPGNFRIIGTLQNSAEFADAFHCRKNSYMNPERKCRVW
Method: The in vitro inhibition of neutral endopeptidase (NEP) 3.4.24.11 can be determined as follows:
Neutral endopeptidase 3.4.24.11 activity is determined by the hydrolysis of the substrate glutaryl-Ala-Ala-Phe-2-naphthylamide (GAAP) using a modified procedure of Orlowski and Wilk (1981). The incubation mixture (total volume 125 μl) contains 4.2 μg of protein (rat kidney cortex membranes prepared by method of Maeda et al, 1983), 50 mM tris buffer, pH 7.4 at 25° C., 500 μM substrate (final concentration), and leucine aminopeptidase M (2.5 μg). The mixture is incubated for 10 minutes at 25° C. and 100 μl of fast garnet (250 μg fast garnet/ml of 10% Tween 20 in 1M sodium acetate, pH 4.2) is added. Enzyme activity is measured spectrophotometrically at 540 nm. One unit of NEP 24.11 activity is defined as 1 nmol of 2-naphthylamine released per minute at 25° C. at pH 7.4. IC50 values for inhibition of the enzyme are determined, i.e. the concentration of test compound required for 50% inhibition of the release of 2-naphthylamine.
Neutral endopeptidase activity is also determined using ANF as a substrate. A trial natriuretic factor degrading activity is determined by measuring the disappearance of rat-ANF (r-ANF) using a 3 minute reverse phase-HPLC separation. An aliquot of the enzyme in 50 mM Tris HCl buffer, pH 7.4, is preincubated at 37° C. for 2 minutes and the reaction is initiated by the addition of 4 nmol of r-ANF in a total volume of 50 μl. The reaction is terminated after 4 minutes with the addition of 30 μl of 0.27% trifluoroacetic acid (TFA). Forty microliters of the mixture is injected into a reverse phase-HPLC and analyzed using a C4 cartridge in a 3 minute, isocratic separation. Twenty-three percent of buffer B (0.1% TFA in 80% acetonitrile) is used. Buffer A is 0.1% TFA in water. One unit of activity is defined as the hydrolysis of 1 nmol of r-ANF per minute at 37° C. at pH 7.4. IC50 values for inhibition of the enzyme are determined, i.e. the concentration of test compound required for 50% inhibition of the hydrolysis of ANF.
The test compound is dissolved in dimethyl sulfoxide or 0.25M sodium bicarbonate solution, and the solution is diluted with pH 7.4 buffer to the desired concentration.
In vitro testing is most appropriate for the free mercapto carboxylic acids of the invention.

[2] = molecular target: T2, angiotensin-converting enzyme (ACE) (Oryctolagus cuniculus, UniProt P12822); assay: in vitro inhibition of the angiotensin-converting enzyme (ACE), hippuryl-histidyl-leucine substrate; assay type: biochemical, rabbit; details: 37° C., 30 minutes
T2 construct: angiotensin-converting enzyme preparation (from lungs of adult male rabbits); from tissue; host or cells: lungs of adult male rabbits
T2 sequence (P12822 34-1310): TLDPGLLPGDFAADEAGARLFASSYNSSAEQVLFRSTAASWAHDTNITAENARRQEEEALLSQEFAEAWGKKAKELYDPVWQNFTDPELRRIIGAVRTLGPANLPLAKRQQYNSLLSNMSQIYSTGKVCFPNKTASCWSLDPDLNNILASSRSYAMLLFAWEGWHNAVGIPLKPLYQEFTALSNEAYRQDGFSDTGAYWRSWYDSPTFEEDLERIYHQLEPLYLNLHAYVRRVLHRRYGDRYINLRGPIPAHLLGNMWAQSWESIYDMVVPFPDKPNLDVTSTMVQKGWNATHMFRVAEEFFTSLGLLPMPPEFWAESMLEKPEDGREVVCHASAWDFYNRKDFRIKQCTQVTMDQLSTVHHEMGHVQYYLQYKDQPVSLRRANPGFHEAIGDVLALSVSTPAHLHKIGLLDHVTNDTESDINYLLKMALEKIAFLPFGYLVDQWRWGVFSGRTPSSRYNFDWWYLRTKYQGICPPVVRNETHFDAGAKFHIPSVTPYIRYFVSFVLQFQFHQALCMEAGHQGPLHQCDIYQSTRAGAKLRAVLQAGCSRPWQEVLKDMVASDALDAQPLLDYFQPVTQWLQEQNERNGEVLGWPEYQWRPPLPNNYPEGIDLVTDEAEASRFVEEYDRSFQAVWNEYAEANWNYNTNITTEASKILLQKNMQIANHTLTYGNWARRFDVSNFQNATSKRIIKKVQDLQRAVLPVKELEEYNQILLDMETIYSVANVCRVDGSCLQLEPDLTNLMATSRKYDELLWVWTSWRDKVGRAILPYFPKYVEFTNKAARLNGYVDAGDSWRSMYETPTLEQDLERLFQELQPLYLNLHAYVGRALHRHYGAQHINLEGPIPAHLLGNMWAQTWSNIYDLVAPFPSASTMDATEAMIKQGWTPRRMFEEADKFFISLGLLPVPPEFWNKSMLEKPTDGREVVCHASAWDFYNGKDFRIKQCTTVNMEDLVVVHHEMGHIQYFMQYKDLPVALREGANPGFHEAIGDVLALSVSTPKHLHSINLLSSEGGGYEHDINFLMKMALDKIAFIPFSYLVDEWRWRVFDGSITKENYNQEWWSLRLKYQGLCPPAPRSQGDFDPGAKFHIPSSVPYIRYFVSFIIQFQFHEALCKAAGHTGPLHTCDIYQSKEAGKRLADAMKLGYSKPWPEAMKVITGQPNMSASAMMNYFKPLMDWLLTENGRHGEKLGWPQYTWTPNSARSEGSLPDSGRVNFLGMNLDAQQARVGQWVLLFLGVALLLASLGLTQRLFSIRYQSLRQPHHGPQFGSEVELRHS
Method: Biophys. Acta 293, p. 451 (1973). For example, said compounds are dissolved at about 1 mM concentration in phosphate buffer. To 100 microliters of solutions of the test compound in phosphate buffer, diluted to the desired concentration, are added 100 microliters of 5 mM hippuryl-histidyl-leucine in phosphate buffer, followed by 50 microliters of the angiotensin-converting enzyme preparation (from lungs of adult male rabbits) in Tris buffer, containing potassium and magnesium chloride, as well as sucrose. Said solutions are incubated at 37° C. for 30 minutes and combined with 0.75 ml of 0.6N aqueous sodium hydroxide to stop further reaction. Then 100 microliters of a 0.2% solution of o-phthalaldehyde in methanol are added at room temperature, and 10 minutes later 100 microliters of 6N hydrochloric acid. These samples are read against water in a spectrophotometer set at 360 nm, and the optical densities thereof estimated. They are corrected for the standard curve via a conversion factor expressing nanomoles of histidyl-leucine formed during said 30 minute incubation period. The results are plotted against drug concentration to determine the IC50, i.e., the drug concentration which gives half the activity of the control sample containing no drug.

[3] = molecular target: T3, Neutral endopeptidase 3.4.24.11 (Rattus norvegicus, UniProt P07861); assay: in vitro inhibition of neutral endopeptidase (NEP) 3.4.24.11, GAAP substrate; assay type: biochemical; details: pH 7.4, 25° C.
T3 construct: rat kidney cortex membranes prepared by method of Maeda et al, 1983; from tissue; host or cells: rat kidney cortex membranes
T3 sequence (P07861 1-750): T1 sequence (P07861 1-750)

In the case of `CC(=O)SC[C@H]1CCCCCC[C@H](C(=O)O)NC1=O` (relative stereo) [Example 16, trans 3-(acetylthiomethyl)-2-oxo-1-azacyclodecane-10-carboxylic acid], the “relative NEP inhibiting activity of isomers” value [1] is reported as “more active NEP inhibiting enantiomer”.
`O=C1N[C@H](C(=O)O)CSCCCCCCCC1CS` (single isomer, unassigned) was tested, and the IC50 [2] was 12 nM, the “relative NEP inhibiting activity of isomers” value [1] was “more active NEP inhibiting isomer” and the IC50 [1] was 18 nM.
With `O=C1NC(C(=O)O)CCCCCCCCCCC1CS` (single isomer, unassigned) [Example 25(b), 3-mercaptomethyl-2-oxo-1-azacyclotetradecane-14-carboxylic acid] the “relative NEP inhibiting activity of isomers” value [1] was “more active NEP inhibiting isomer”.
With `O=C1N[C@@H](C(=O)O)CCCCCC[C@@H]1CS` (relative stereo) [trans 3-mercaptomethyl-2-oxo-1-azacyclodecane-10-carboxylic acid] the IC50 [3] was roughly 3 nM and the “relative NEP inhibiting activity of isomers” value [1] was “more active neutral endopeptidase (NEP) inhibiting diastereoisomer”.
For `O=C1N[C@H](C(=O)O)CSCCCCCCCCC1CS` (single isomer, unassigned) [Example 35(b)], the “relative NEP inhibiting activity of isomers” value [1] was “more active NEP inhibiting isomer”.
With `O=C1NC(C(=O)O)CCCCCCCCCCC1CS` (stereo not drawn) [3-mercaptomethyl-2oxo-1-azacyclotetradecane-14-carboxylic acid] the IC50 [2] was roughly 45 nM and the IC50 [1] was roughly 30 nM.
In the case of `O=C1N[C@@H](C(=O)O)CCCCCC[C@H]1CS` (relative stereo) [Example 2(b), 3-mercaptomethyl-2-oxo-1-azacyclodecane-10-carboxylic acid], the “relative NEP inhibiting activity of isomers” value [1] is reported as “less active diastereoisomer”.
For `COC(=O)C1CCCCCCCCCCC(CSC(C)=O)C(=O)N1` (single isomer, unassigned) [Example 24 (minor isomer), methyl 3-(acetylthiomethyl)-2-oxo-1-azacyclotetradecane-14-carboxylate], the “relative NEP inhibiting activity of isomers” value [1] was “more active NEP inhibiting isomer”.
